{"source": "patent US20260083751A1", "about": "“ALLOSTERIC MODULATORS OF ANDROGEN RECEPTOR COACTIVATOR RECRUITMENT FOR CRPC THERAPY” (University of Pittsburgh – Of the Commonwealth System of …, priority 2022, published 2026)", "key": {"AR-TIF2 PPI": {"molecular_target": "T1, AR-TIF2 PPI (Homo sapiens, UniProt P10275)", "T1 construct": "AR-LBD residues (662-919) were incorporated into one biosensor; expressed in transfected cells; host or cells: U-2 OS osteosarcoma cells, coinfected with recombinant adenoviruses", "T1 sequence (P10275 662-919)": "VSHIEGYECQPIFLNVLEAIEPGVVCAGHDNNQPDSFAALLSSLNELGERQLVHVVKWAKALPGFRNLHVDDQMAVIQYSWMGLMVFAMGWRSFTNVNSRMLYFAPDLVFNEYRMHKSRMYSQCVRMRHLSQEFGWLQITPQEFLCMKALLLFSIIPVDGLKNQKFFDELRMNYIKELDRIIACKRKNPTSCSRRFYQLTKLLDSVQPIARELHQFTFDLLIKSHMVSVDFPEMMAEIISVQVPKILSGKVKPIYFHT", "experiment": "AR-TIF2 PPIB HCS assay: inhibition of DHT-induced AR-TIF2 PPI formation (compound then DHT)", "assay_type": "cell-based", "details": "U-2 OS cells", "method": "AR-TIF2 Protein-Protein Interaction Biosensor Assay: The AR-TIF2 PPIB HCS assay was performed in U-2 OS osteosarcoma cells as described previously (Fancher et al., Assay Drug Dev Technol. 2016, 14:453-477; Fancher et al., Assay Drug Dev Technol. 2018, 16:297-319; Hua et al., Assay Drug Dev Technol. 2014, 12:395-418; Hua et al., Methods Mol Biol. 2018, 1683:211-227). Briefly, U-2 OS cells were coinfected with recombinant adenovirus biosensor expression constructs and seeded at 2,500 cells per well in 384-well collagen-coated microplates (Greiner Bio-One #781956) and plates were incubated overnight at 37° C. in 5% CO2 and 95% humidity. […] After the appropriate time, assay plates were fixed by transfer of 50 μL of pre-warmed (37° C.) 7.4% formaldehyde and 2 μg/mL Hoechst 33342 in PBS and incubation at room temperature for 30 minutes. Liquid was aspirated, plates were washed twice with 85 μL PBS, leaving the final wash in the plate. Plates were sealed with adhesive aluminum plate seals, and fluorescent images of three fields of view were acquired in the DAPI (Hoechst stained nuclei), FITC (TIF2-GFP) and Texas Red (AR-RFP) channels on an ImageXpress® Micro (IXM) automated HCS platform (Molecular Devices LLC, Sunnyvale, CA) using a 10× Plan Fluor 0.3 NA objective. Images were analyzed using the Translocation Enhanced (TE) image analysis module of the MetaXpress® software (Molecular Devices, LLC, San Jose, CA) as described previously (Fancher et al., Assay Drug Dev Technol. 2016, 14:453-477; Fancher et al., Assay Drug Dev Technol. 2018, 16:297-319; Hua et al., Assay Drug Dev Technol. 2014, 12:395-418; Hua et al., Methods Mol Biol. 2018, 1683:211-227).\nFor the 96-well AR-LBD H^3-DHT radioligand binding assay, eight minimum and maximum plate control wells were utilized to normalize the data. For the PC cell line growth inhibition assays the DMSO control data from the TO and T72 assay plates was used to assess the dynamic range of the T0 to T72 cell growth, and to calculate S:B ratios and Z′-factor coefficient statistics for the assay signal window (T0 to T72). To normalize the 72 h compound exposure PC growth inhibition data, the signals from the compound treated wells were processed and expressed as % of the T72 DMSO plate controls. IC50 and GI50 values for each of the bioassays were calculated using GraphPad Prism 9 software to plot and fit data to curves using the Sigmoidal dose response variable slope equation Y=Bottom+[Top-Bottom]/[1+10^(Log EC50−X)*HillSlope].\nA positional AR-TFI2 protein-protein interaction biosensor (PPIB) assay was used to identify small molecules that inhibited DHT-induced formation of AR-TIF2 PPIs and/or disrupted pre-existing AR-TIF2 PPIs (Fancher et al., Assay Drug Dev Technol 2016, 14(8):453-477; Fancher et al., Assay Drug Dev Technol 2018, 16(6):297-319; Hua et al., Assay Drug Dev Technol 2014, 12:395-418; Hua et al., Methods Mol biol 2018, 1683:211-227). AR-LBD residues (662-919) were incorporated into one biosensor and TIF2 residues (725-840) containing the 3rd NR box LXXLL motif into the second interacting biosensor partner (Id.) The AR-TIF2 PPIB recapitulates the orthosteric ligand (OSL)-induced translocation of AR from the cytoplasm into the nucleus where PPIs with TIF2 result in colocalization of both biosensors in the nucleolus. Using three libraries, a total of 143,535 compounds were screened—a 10,000-compound ChemDiv PPI focused diversity library, a 50,000-compound ChemBridge diversity library, and a 83,535-compound library provided by the NCI's Chemical Biology Consortium. The 10K and 50K diversity libraries were subsets of 142K and 810K parent libraries, enabling screening of a representative subset of >1×10^6 compounds. AR-TIF2 PPI inhibitor and disruptor actives were confirmed in the HCS assay and counter screens designed to identify and exclude nuisance/interference or non-selective compounds (Fancher et al., Assay Drug Dev Technol 2018, 16(6):297-319). […]"}, "[1]": {"tested_on": "DHT-induced full length AR PSA promoter-driven transcription in C4-2 CRPC cells", "experiment": "PSA-6.1 luciferase reporter assay in C4-2 CRPC cells", "assay_type": "cell-based", "method": "Prostate Specific Antigen (PSA)-6.1 Luciferase Reporter Assay in the C4-2 CRPC Cell Line: The PSA-6.1-Luc luciferase reporter plasmid was provided by Dr. Zhou Wang in the Urology department of the University of Pittsburgh Cancer Institute. The PSA-6.1-Luc reporter is controlled by a fragment of the PSA promoter that contains at least three AREs. The PSA-6.1-Luc plasmid (12 ng/well) was combined with FuGENE® 6 transfection agent at a ratio 6:1 in SFM and incubated for 25 minutes at room temperature before being combined with C4-2 cells suspended in RPMI 1640 media containing 1% penicillin-streptomycin, 1% L-glutamine, and 10% FBS. Transfected cells were then seeded into white opaque 384-well assay plates (Greiner Bio-one, #781080) at 6,000 cells per well in a volume of 30 μL and incubated in 5% CO2, 37° C., and 95% humidity for 24 h."}, "[2]": {"details": "25 nM DHT, read-out: Inhibition DHT-induced AR-TIF2 PPI Formation IC50"}, "[3]": {"details": "compound then DHT, read-out: C then D IC50"}, "[4]": {"details": "C4-2 CRPC cells, read-out: Inhibition of DHT-induced full length AR PSA reporter IC50"}, "[5]": {"details": "C4-2, 24 h, 24 h exposure, read-out: IC50 in PSA-Luc reporter assay, C4-2 cells (potency range in words)"}, "[6]": {"details": "b132, read-out: IC50, DHT-induced AR-mediated PSA promoter-driven transcription in C4-2 CRPC cells"}}, "note": "Where two headings read alike, the source gives them in different places.", "data": [{"compound": "Cc1ccccc1-c1cc(O)c2c(c1)CN(c1nc(C(N)=O)cs1)CCO2", "note": "[Compound S1-1]", "values": [{"measurement": "IC50", "setting": "AR-TIF2 PPI; [2]", "value": 5.38, "unit": "µM"}, {"measurement": "IC50", "setting": "AR-TIF2 PPI; [3]", "value": 5.64, "unit": "µM"}, {"measurement": "IC50", "setting": "[1]; C4-2 CRPC cells, listed as 1, read-out: Inhibition of DHT-induced full length AR PSA reporter IC50", "value": 5.27, "unit": "µM"}]}, {"compound": "Cc1nc(N)cc(N2CCOc3c(O)cc(-c4ccccc4C)cc3C2)n1", "note": "[Compound S1-2]", "values": [{"measurement": "IC50", "setting": "AR-TIF2 PPI; [3]", "value": 14.5, "unit": "µM"}, {"measurement": "IC50", "setting": "[1]; [4]", "value": "< 37", "unit": "µM"}]}, {"compound": "Cc1ccccc1-c1cc(O)c2c(c1)CN(c1nccs1)CCO2", "note": "[Compound S1-3]", "values": [{"measurement": "IC50", "setting": "AR-TIF2 PPI; [3]", "value": 30.5, "unit": "µM"}, {"measurement": "IC50", "setting": "[1]; [4]", "value": "< 37", "unit": "µM"}]}, {"compound": "Cc1ccccc1-c1cc(O)c2c(c1)CN(c1cc(N)ncn1)CCO2", "note": "[Compound S1-4]", "values": [{"measurement": "IC50", "setting": "AR-TIF2 PPI; [2]", "value": "> 100", "unit": "µM"}, {"measurement": "IC50", "setting": "AR-TIF2 PPI; [3]", "value": "> 100", "unit": "µM"}, {"measurement": "IC50", "setting": "[1]; [4]", "value": "< 37", "unit": "µM"}]}, {"compound": "COc1cc(-c2ccc(C)s2)cc2c1OCCN(c1nc(C(N)=O)cs1)C2", "note": "[Compound S1-5]", "values": [{"measurement": "IC50", "setting": "AR-TIF2 PPI; [3]", "value": 26.2, "unit": "µM"}, {"measurement": "IC50", "setting": "[1]; [4]", "value": "< 37", "unit": "µM"}]}, {"compound": "Cc1nsc(NC(=O)N2CCC(Sc3ccccc3C)CC2)n1", "note": "[Compound S2-6]", "values": [{"measurement": "IC50", "setting": "AR-TIF2 PPI; [2]", "value": 0.62, "unit": "µM"}]}, {"compound": "Cc1nsc(NC(=O)N2CCC(Cn3ccnc3)CC2)n1", "note": "[Compound S2-7]", "values": [{"measurement": "IC50", "setting": "AR-TIF2 PPI; [2]", "value": "> 100", "unit": "µM"}, {"measurement": "IC50", "setting": "AR-TIF2 PPI; [3]", "value": "> 100", "unit": "µM"}]}, {"compound": "Cc1c(-c2ccccc2F)[nH]c2ccc(CNC(=O)CCc3cn[nH]c3)cc12", "note": "[Compound S3-11]", "values": [{"measurement": "IC50", "setting": "AR-TIF2 PPI; [2]", "value": 3.11, "unit": "µM"}, {"measurement": "IC50", "setting": "AR-TIF2 PPI; [3]", "value": 3.25, "unit": "µM"}, {"measurement": "IC50", "setting": "[1]; [5]", "value": "1 to 10", "unit": "µM"}, {"measurement": "IC50", "setting": "[1]; [4]", "value": 4.21, "unit": "µM"}]}, {"compound": "Cc1c(-c2ccccc2F)[nH]c2ccc(CNC(=O)CCc3cnccn3)cc12", "note": "[Compound S3-12]", "values": [{"measurement": "IC50", "setting": "AR-TIF2 PPI; [3]", "value": 5.13, "unit": "µM"}, {"measurement": "IC50", "setting": "[1]; [5]", "value": "1 to 10", "unit": "µM"}]}, {"compound": "CC(=O)NCCC(=O)NCc1ccc2[nH]c(-c3ccccc3F)c(C)c2c1", "note": "[Compound S3-13]", "values": [{"measurement": "IC50", "setting": "AR-TIF2 PPI; [3]", "value": 7.98, "unit": "µM"}, {"measurement": "IC50", "setting": "[1]; [6]", "value": "40 to 59", "unit": "µM"}]}, {"compound": "Cc1c(-c2ccccc2F)[nH]c2ccc(CNC(=O)c3ccc(CO)o3)cc12", "note": "[Compound S3-14]", "values": [{"measurement": "IC50", "setting": "AR-TIF2 PPI; [3]", "value": 2.42, "unit": "µM"}]}, {"compound": "Cc1c(-c2ccc(F)cc2)[nH]c2ccc(CNC(=O)c3ccc(CO)o3)cc12", "note": "[Compound S3-15]", "values": [{"measurement": "IC50", "setting": "AR-TIF2 PPI; [3]", "value": 6.7, "unit": "µM"}, {"measurement": "IC50", "setting": "[1]; [5]", "value": "1 to 10", "unit": "µM"}]}, {"compound": "Cc1cccc2c(-c3ccc(O)c(F)c3)c[nH]c12", "note": "[Compound S3-17]", "values": [{"measurement": "IC50", "setting": "AR-TIF2 PPI; [3]", "value": 3.87, "unit": "µM"}, {"measurement": "IC50", "setting": "[1]; [5]", "value": "1 to 10", "unit": "µM"}]}, {"compound": "CNC(=O)c1ccc(-c2c[nH]c3c(C)cccc23)cc1", "note": "[Compound S3-21]", "values": [{"measurement": "IC50", "setting": "AR-TIF2 PPI; [2]", "value": "~36", "unit": "µM"}, {"measurement": "IC50", "setting": "AR-TIF2 PPI; [3]", "value": 36.1, "unit": "µM"}, {"measurement": "IC50", "setting": "[1]; [5]", "value": "10 to 100", "unit": "µM"}, {"measurement": "IC50", "setting": "[1]; [6]", "value": "40 to 59", "unit": "µM"}]}]}
